Legend:
COLO205 (Colorectal) = assay: Hollow Fiber in vivo anti-cancer assay; set-up: species or system mice
Procedure: (§1) The in vivo activity was tested using the Hollow Fiber methodology developed by the National Cancer Institute: Developmental Therapeutics Branch for use in their antineoplastic agent screening program. Specifically, the anti-cancer activity of amonafide L-malate was tested by the following protocol.
(§2) Polyvinylidene fluoride (PVDF) hollow fibers were used. The fibers were individually flushed and filled with 70% ethanol and incubated in 70% ethanol at room temperature for a minimum of 96 hour. Following three washes with deionized water, the fibers were filled with and placed into a pan of deionized water for sterilization by autoclaving. Then the fibers were stored in water at 4° C. until used.
(§3) Mice were grouped into 4 groups, two control groups with 6 mice per group and 2 experimental groups with 3 mice per group.
(§4) Anesthesia was induced in mice by ketamine/acepromazine/xylazine injected intraperitoneally (i.p.) For the intraperitoneal (i.p.) implants, a small incision was made through the skin and musculature of the dorsal abdominal wall, the fiber samples were inserted into the peritoneal cavity in a craniocaudal direction and the incision was closed with a skin staple. For subcutaneous (s.c.) implants, a small skin incision was made at the nape of the neck to allow insertion of an 11 gauge tumor implant trocar. The trocar, containing the hollow fiber samples, was inserted caudally through the subcutaneous tissues and the fibers were deposited during withdrawal of the trocar. The skin incision was closed with a skin staple. Each mouse was host of 6 samples, representing 3 tumor cells lines each of which was cultured in the 2 physiologic compartments (i.p. and s.c.).
(§5) On the day following the last drug injection, the animals were sacrificed and the hollow fibers extracted. The hollow fibers were then subjected to the stable endpoint MTT assay as described in Example 5. The optical density of each sample is determined spectrophotometrically at 540 nm and the mean of each treatment group is calculated. The percent net growth for each cell line in each treatment group is calculated as described in Example 5 and compared to the percent net growth in the vehicle treated controls (Group B) using the formula below to determine the percent growth inhibition:
(§6) % growth inhibition=(Net GrowthControl−Net GrowthTreated)/Net GrowthControl)*100

PC3 (Prostate) = assay: Hollow Fiber in vivo anti-cancer assay; set-up: species or system mice; settings: for % Growth Inhibition: 29.4 mg/kg i.p. once daily days 3-8
Procedure: as §1, §2, §3, §4, §5, §6

MCF-7 (Breast) = assay: Hollow Fiber in vivo anti-cancer assay; set-up: species or system mice
Procedure: as §1, §2, §3, §4, §5, §6

MDA-231 (Breast) = assay: Hollow Fiber in vivo anti-cancer assay; set-up: species or system mice
Procedure: as §1, §2, §3, §4, §5, §6

H23 (Lung) = assay: Hollow Fiber in vivo anti-cancer assay; set-up: species or system mice
Procedure: as §1, §2, §3, §4, §5, §6

[1] = Daily body weight and general health monitoring during the hollow fiber study; type: in vivo; settings: mice, monitored daily for 6 days, i.p. dosing
Procedure: Individual mouse body weights were recorded daily and animals were monitored daily for general health for 6 days.

**Q.** Which results are given for CN(C)CCN1C(=O)c2cccc3cc(N)cc(c23)C1=O.O=C(O)C[C@H](O)C(=O)O [Amonafide Malate]?
**A.** percent growth inhibition (text summary of Tables 6-8) (COLO205 (Colorectal); COLO205 (colorectal cancer)): Significant percent growth inhibition; % Growth Inhibition (COLO205 (Colorectal); COLO205, I.P. fibers, 15 mg/kg i.p. twice-daily): 82%; % Growth Inhibition (COLO205 (Colorectal); COLO205, I.P. fibers, 29 mg/kg i.p. twice-daily): 98%; % Growth Inhibition (COLO205 (Colorectal); COLO205, IP, 29.4 mg/kg i.p. once daily days 3-8): 84.6%; % Growth Inhibition (COLO205 (Colorectal); COLO205, S.C. fibers, 15 mg/kg i.p. twice-daily): 50%; % Growth Inhibition (COLO205 (Colorectal); COLO205, S.C. fibers, 29 mg/kg i.p. twice-daily): 76%; % Growth Inhibition (COLO205 (Colorectal); COLO205, SC, 29.4 mg/kg i.p. once daily days 3-8): 80.4%; % Growth Inhibition (PC3 (Prostate); PC3, IP): 71.6%; % Growth Inhibition (PC3 (Prostate); PC3, SC): 52.9%; percent growth inhibition (text summary of Tables 6-8) (PC3 (Prostate); PC-3 (prostate)): Significant percent growth inhibition; % Growth Inhibition (MCF-7 (Breast); MCF-7, I.P. fibers, 15 mg/kg i.p. twice-daily): 97%; % Growth Inhibition (MCF-7 (Breast); MCF-7, I.P. fibers, 29 mg/kg i.p. twice-daily): 124%; % Growth Inhibition (MCF-7 (Breast); MCF-7, IP, 29.4 mg/kg i.p. once daily days 3-8): 150.2%; % Growth Inhibition (MCF-7 (Breast); MCF-7, S.C. fibers, 15 mg/kg i.p. twice-daily): 83%; % Growth Inhibition (MCF-7 (Breast); MCF-7, S.C. fibers, 29 mg/kg i.p. twice-daily): 107%; % Growth Inhibition (MCF-7 (Breast); MCF-7, SC, 29.4 mg/kg i.p. once daily days 3-8): 116.1%; percent growth inhibition (text summary of Tables 6-8) (MCF-7 (Breast); MCF-7, above 100% indicates lethality for cancerous cells): above 100%; % Growth Inhibition (MDA-231 (Breast); MDA-231, I.P. fibers, 15 mg/kg i.p. twice-daily): 93%; % Growth Inhibition (MDA-231 (Breast); MDA-231, I.P. fibers, 29 mg/kg i.p. twice-daily): 108%; % Growth Inhibition (MDA-231 (Breast); MDA-231, S.C. fibers, 15 mg/kg i.p. twice-daily): 79%; % Growth Inhibition (MDA-231 (Breast); MDA-231, S.C. fibers, 29 mg/kg i.p. twice-daily): 113%; percent growth inhibition (text summary of Tables 6-8) (MDA-231 (Breast); MDA-231, above 100% indicates lethality for cancerous cells): above 100%; % Growth Inhibition (H23 (Lung); H23, I.P. fibers, 15 mg/kg i.p. twice-daily): 36%; % Growth Inhibition (H23 (Lung); H23, I.P. fibers, 29 mg/kg i.p. twice-daily): 47%; % Growth Inhibition (H23 (Lung); H23, S.C. fibers, 15 mg/kg i.p. twice-daily): 13%; % Growth Inhibition (H23 (Lung); H23, S.C. fibers, 29 mg/kg i.p. twice-daily): 27%; premature sacrifice for body weight loss of greater than 20% or other signs of toxicity [1]: not necessary to sacrifice any animals

— patent publication US6989390B2, “Amonafide salts” (priority 2002, dated 2006)
